Measured values: patent US20130178472A1, “ARYLSULFONAMIDE PYRIDINE-PYRIDINONE DERIVATIVES, PREPARATION OF SAME, AND THERAPEUTIC USE THEREOF” (SANOFI, priority 2010, published 2013)
Counter-ions that a name gives are not always drawn.

target: T1, fusion protein Tel/PDGF-R beta (BaF3 Tel/PDGF cells) (Homo sapiens, UniProt P09619); assay: Inhibition of PDGF beta receptor tyrosine kinase activity: proliferation of BaF3 Tel/PDGF cells; assay type: cell-based, murine; conditions: 72 h incubation, viable cells by cellular ATP (CellTiter-Glo); read-out: IC50, concentration which inhibits 50% of the proliferation of the Baf3 tel/PDGF cells
T1 construct: the transmembrane and intracellular part of the PDGF-R beta receptor; N-terminal part of transcription factor Tel (ETV6, own knowledge: UniProt P41212), containing the oligomerization domain; expressed in transfected cells; host or cells: murine hematopoietic cell line BaF/3 (BaF3 Tel/PDGF); the other entry of the earlier key: ETV6 (P41212, Transcription factor ETV6)
T1 sequence (P09619 with tags, fused parts or gaps): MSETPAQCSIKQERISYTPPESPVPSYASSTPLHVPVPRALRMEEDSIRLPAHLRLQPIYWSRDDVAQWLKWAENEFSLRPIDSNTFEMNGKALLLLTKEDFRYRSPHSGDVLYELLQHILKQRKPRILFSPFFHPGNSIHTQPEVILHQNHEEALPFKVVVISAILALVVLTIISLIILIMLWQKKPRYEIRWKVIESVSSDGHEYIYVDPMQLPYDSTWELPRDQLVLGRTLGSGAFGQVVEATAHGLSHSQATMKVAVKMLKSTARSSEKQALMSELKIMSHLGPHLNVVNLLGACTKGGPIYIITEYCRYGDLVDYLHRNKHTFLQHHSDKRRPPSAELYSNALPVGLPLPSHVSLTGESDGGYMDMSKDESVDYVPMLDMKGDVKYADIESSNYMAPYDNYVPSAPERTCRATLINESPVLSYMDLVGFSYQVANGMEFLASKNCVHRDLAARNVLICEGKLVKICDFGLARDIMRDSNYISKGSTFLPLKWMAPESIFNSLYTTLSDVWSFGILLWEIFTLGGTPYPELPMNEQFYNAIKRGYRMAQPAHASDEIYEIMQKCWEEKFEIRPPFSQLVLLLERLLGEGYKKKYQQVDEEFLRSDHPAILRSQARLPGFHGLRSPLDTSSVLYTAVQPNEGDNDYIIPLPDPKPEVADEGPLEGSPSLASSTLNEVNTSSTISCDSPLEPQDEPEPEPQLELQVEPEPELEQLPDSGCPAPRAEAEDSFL
Excerpt: The inhibitory activity on the PDGF receptor kinases is given by the concentration which inhibits 50% of the proliferation activity of Baf3 tel/PDGF cells respectively. The inhibitory activity on p70S6 kinase is given by the concentration which inhibits 50% of the phosphorylation of the peptide substrate derived from the S6 ribosomal protein (AKRRRLSSLRA, Upstate).
Measurement of the inhibition of the PDGF beta receptor (PDGF-Rβ) tyrosine kinase activity (Baf-3 tel/PDGFRβ):
This test consists in evaluating the effects of the compounds on the PDGF beta receptor tyrosine kinase activity.
The inhibitory effect of the compounds according to the invention toward the PDGF-R receptor tyrosine kinase activity was evaluated on the hematopoietic murine cell line BaF/3 transfected with a plasmid encoding the fusion protein Tel/PDGF-R beta. This fusion protein is found in chronic myelomonocytic myeloid leukemias (CMML). It comprises the N-terminal part of the transcription factor Tel and the transmembrane and intracellular part of the PDGF-R beta receptor. This fusion protein is present in dimerized form (presence of an oligomerization domain in the N-terminal part of Tel) and therefore leads to the constitutive activity of the PDGF-R beta kinase domain. This BaF3 Tel/PDGF line has been described in the literature several times and in particular in detail in the article by CARROLL, M. et al., PNAS, 1996, 93, 14845-14850, CARROLL, M. et al., Blood 2002, 99, 14845-14850.
The BaF3 Tel/PDGF cells are washed with phosphate buffer and inoculated in 96-well plates, at the density of 5×10^4 cells/ml ([…]), in RPMI 1640 containing 10% FCS, in the presence or absence of the compounds to be tested. After 72 h of incubation, the viable cells are quantified by measuring the cellular ATP using the kit CellTiter-Glo®(Promega, Cat G7571). The cells are treated according to the instructions given by the kit supplier and the luminescence is measured with the aid of a Luminoskan (Ascent, Labsystem) with the following parameters: measurement: single; integration time: 1000 ms, lag time: 5 s.
It is thus apparent that the compounds according to the invention have an inhibitory activity on the PDGF-R beta tyrosine kinase activity. This activity is given by the concentration which inhibits 50% of the proliferation of the Baf3 tel/PDGF cells (IC50).

SMILES	IC50
CCn1c(N)c(C(=O)NC)c(=O)c2ccc(-c3ccc(NS(=O)(=O)c4cccc(F)c4)c(F)c3)nc21 [compound No. 2, 2-amino-1-ethyl-7-(3-fluoro-4-{[(3-fluorophenyl)sulfonyl]amino}phenyl)-N-methyl-4-oxo-1,4-dihydro-1,8-naphthyridine-3-carboxamide]	36 nM
CCn1c(N)c(C(=O)NC)c(=O)c2ccc(-c3ccc(NS(=O)(=O)c4ccccc4F)c(F)c3)nc21 [compound No. 20, 2-amino-1-ethyl-7-(3-fluoro-4-{[(2-fluorophenyl)sulfonyl]amino}phenyl)-N-methyl-4-oxo-1,4-dihydro-1,8-naphthyridine-3-carboxamide]	280 nM
CCn1c(N)c(C(=O)NC)c(=O)c2ccc(-c3ccc(NS(=O)(=O)c4ccc(F)cc4)c(F)c3)nc21 [compound No. 24, 2-amino-1-ethyl-7-(3-fluoro-4-{[(4-fluorophenyl)sulfonyl]amino}phenyl)-N-methyl-4-oxo-1,4-dihydro-1,8-naphthyridine-3-carboxamide]	24 nM

tested on: not given; assay: not given; conditions: not given

melting point	SMILES
220 to 223 °C	CCn1c(N)c(C(=O)NC)c(=O)c2ccc(-c3ccc(NS(=O)(=O)Cc4cccnc4)c(F)c3)nc21 (as salt: HCl) [compound No. 1, 2-amino-1-ethyl-7-(3-fluoro-4-{[(pyridin-3-ylmethyl)sulfonyl]amino}phenyl)-N-methyl-4-oxo-1,4-dihydro-1,8-naphthyridine-3-carboxamide]
268 to 270 °C	CCn1c(N)c(C(=O)NC)c(=O)c2ccc(-c3ccc(NS(=O)(=O)CCN(C)C)c(F)c3)nc21 (as salt: HCl) [compound No. 4, 2-amino-7-[4-({[2-(dimethylamino)ethyl]sulfonyl}amino)-3-fluorophenyl]-1-ethyl-N-methyl-4-oxo-1,4-dihydro-1,8-naphthyridine-3-carboxamide]
> 260 °C	CCn1c(N)c(C(=O)NC)c(=O)c2ccc(-c3ccc(NS(=O)(=O)Cc4cccc(N)c4)c(F)c3)nc21 (as salt: HCl) [compound No. 5, 2-amino-7-(4-{[(3-aminobenzyl)sulfonyl]amino}-3-fluorophenyl)-1-ethyl-N-methyl-4-oxo-1,4-dihydro-1,8-naphthyridine-3-carboxamide]
> 300 °C	CCn1c(N)c(C(=O)NC)c(=O)c2ccc(-c3ccc(NS(=O)(=O)c4cn(C)cn4)c(F)c3)nc21 (as salt: HCl) [compound No. 6, 2-amino-1-ethyl-7-(3-fluoro-4-{[(1-methyl-1H-imidazol-4-yl)sulfonyl]amino}phenyl)-N-methyl-4-oxo-1,4-dihydro-1,8-naphthyridine-3-carboxamide]
> 260 °C	CCn1c(N)c(C(=O)NC)c(=O)c2ccc(-c3ccc(NS(=O)(=O)c4ccc(N5CCOCC5)nc4)c(F)c3)nc21 (as salt: HCl) [compound No. 26, 2-amino-1-ethyl-7-[3-fluoro-4-({[6-(morpholin-4-yl)pyridin-3-yl]sulfonyl}amino)phenyl]-N-methyl-4-oxo-1,4-dihydro-1,8-naphthyridine-3-carboxamide]
260 °C	CCn1c(N)c(C(=O)NC)c(=O)c2ccc(-c3ccc(NS(=O)(=O)Cc4ccccn4)c(F)c3)nc21 (as salt: HCl) [compound No. 27, 2-amino-1-ethyl-7-(3-fluoro-4-{[(pyridin-2-ylmethyl)sulfonyl]amino}phenyl)-N-methyl-4-oxo-1,4-dihydro-1,8-naphthyridine-3-carboxamide]
256 °C	CCn1c(N)c(C(=O)NC)c(=O)c2ccc(-c3ccc(NS(=O)(=O)c4cccc(F)c4)c(F)c3)nc21 [compound No. 2, 2-amino-1-ethyl-7-(3-fluoro-4-{[(3-fluorophenyl)sulfonyl]amino}phenyl)-N-methyl-4-oxo-1,4-dihydro-1,8-naphthyridine-3-carboxamide]
> 260 °C	C=CS(=O)(=O)Nc1ccc(-c2ccc3c(=O)c(C(=O)NC)c(N)n(CC)c3n2)cc1F [compound No. 3, 2-amino-7-{4-[(ethenylsulfonyl)amino]-3-fluorophenyl}-1-ethyl-N-methyl-4-oxo-1,4-dihydro-1,8-naphthyridine-3-carboxamide]
165 to 167 °C	CCCCS(=O)(=O)Nc1ccc(-c2ccc3c(=O)c(C(=O)NC)c(N)n(CC)c3n2)cc1F [compound No. 7, 2-amino-7-{4-[(butylsulfonyl)amino]-3-fluorophenyl}-1-ethyl-N-methyl-4-oxo-1,4-dihydro-1,8-naphthyridine-3-carboxamide]
321 °C	CCn1c(N)c(C(=O)NC)c(=O)c2ccc(-c3ccc(NS(=O)(=O)c4c(Cl)cccc4Cl)c(F)c3)nc21 [compound No. 11, 2-amino-7-(4-{[(2,6-dichlorophenyl)sulfonyl]amino}-3-fluorophenyl)-1-ethyl-N-methyl-4-oxo-1,4-dihydro-1,8-naphthyridine-3-carboxamide]
323 °C	CCn1c(N)c(C(=O)NC)c(=O)c2ccc(-c3ccc(NS(=O)(=O)c4cc(Cl)ccc4Cl)cc3Cl)nc21 [compound No. 12, 2-amino-7-(2-chloro-4-{[(2,5-dichlorophenyl)sulfonyl]amino}phenyl)-1-ethyl-N-methyl-4-oxo-1,4-dihydro-1,8-naphthyridine-3-carboxamide]
239 °C	CCn1c(N)c(C(=O)NC)c(=O)c2ccc(-c3ccc(NS(=O)(=O)c4cccc(Cl)c4Cl)cc3Cl)nc21 [compound No. 13, 2-amino-7-(2-chloro-4-{[(2,3-dichlorophenyl)sulfonyl]amino}phenyl)-1-ethyl-N-methyl-4-oxo-1,4-dihydro-1,8-naphthyridine-3-carboxamide]
299 °C	CCn1c(N)c(C(=O)NC)c(=O)c2ccc(-c3ccc(NS(=O)(=O)c4cccc(Cl)c4Cl)c(C)c3)nc21 [compound No. 15, 2-amino-7-(4-{[(2,3-dichlorophenyl)sulfonyl]amino}-3-methylphenyl)-1-ethyl-N-methyl-4-oxo-1,4-dihydro-1,8-naphthyridine-3-carboxamide]
> 300 °C	CCn1c(N)c(C(=O)NC)c(=O)c2ccc(-c3ccc(NS(C)(=O)=O)cc3)nc21 [compound No. 16, 2-amino-1-ethyl-N-methyl-7-{4-[(methylsulfonyl)amino]phenyl}-4-oxo-1,4-dihydro-1,8-naphthyridine-3-carboxamide]
210 °C	CCn1c(N)c(C(=O)NC)c(=O)c2ccc(-c3ccc(NS(=O)(=O)c4cccc(Cl)c4Cl)cc3)nc21 [compound No. 17, 2-amino-7-(4-{[(2,3-dichlorophenyl)sulfonyl]amino}phenyl)-1-ethyl-N-methyl-4-oxo-1,4-dihydro-1,8-naphthyridine-3-carboxamide]
> 260 °C	CCn1c(N)c(C(=O)NC)c(=O)c2ccc(-c3ccc(NS(=O)(=O)c4ccccc4Cl)cc3)nc21 [compound No. 19, 2-amino-7-(4-{[(2-chlorophenyl)sulfonyl]amino}phenyl)-1-ethyl-N-methyl-4-oxo-1,4-dihydro-1,8-naphthyridine-3-carboxamide]
> 260 °C	CCn1c(N)c(C(=O)NC)c(=O)c2ccc(-c3ccc(NS(=O)(=O)c4ccccc4F)c(F)c3)nc21 [compound No. 20, 2-amino-1-ethyl-7-(3-fluoro-4-{[(2-fluorophenyl)sulfonyl]amino}phenyl)-N-methyl-4-oxo-1,4-dihydro-1,8-naphthyridine-3-carboxamide]
> 260 °C	CCn1c(N)c(C(=O)NC)c(=O)c2ccc(-c3ccc(NS(=O)(=O)c4ccc(Cl)cc4)c(F)c3)nc21 [compound No. 21, 2-amino-7-(4-{[(4-chlorophenyl)sulfonyl]amino}-3-fluorophenyl)-1-ethyl-N-methyl-4-oxo-1,4-dihydro-1,8-naphthyridine-3-carboxamide]
> 260 °C	CCn1c(N)c(C(=O)NC)c(=O)c2ccc(-c3ccc(NS(=O)(=O)c4cccc(Cl)c4)c(F)c3)nc21 [compound No. 22, 2-amino-7-(4-{[(3-chlorophenyl)sulfonyl]amino}-3-fluorophenyl)-1-ethyl-N-methyl-4-oxo-1,4-dihydro-1,8-naphthyridine-3-carboxamide]
> 260 °C	CCn1c(N)c(C(=O)NC)c(=O)c2ccc(-c3ccc(NS(=O)(=O)c4ccc(F)c(F)c4)c(F)c3)nc21 [compound No. 23, 2-amino-7-(4-{[(3,4-difluorophenyl)sulfonyl]amino}-3-fluorophenyl)-1-ethyl-N-methyl-4-oxo-1,4-dihydro-1,8-naphthyridine-3-carboxamide]
> 260 °C	CCn1c(N)c(C(=O)NC)c(=O)c2ccc(-c3ccc(NS(=O)(=O)c4ccc(F)cc4)c(F)c3)nc21 [compound No. 24, 2-amino-1-ethyl-7-(3-fluoro-4-{[(4-fluorophenyl)sulfonyl]amino}phenyl)-N-methyl-4-oxo-1,4-dihydro-1,8-naphthyridine-3-carboxamide]
> 260 °C	CCn1c(N)c(C(=O)NC)c(=O)c2ccc(-c3ccc(NS(=O)(=O)c4cccc(OC)c4)c(F)c3)nc21 [compound No. 25, 2-amino-1-ethyl-7-(3-fluoro-4-{[(3-methoxyphenyl)sulfonyl]amino}phenyl)-N-methyl-4-oxo-1,4-dihydro-1,8-naphthyridine-3-carboxamide]
